Data from ChEMBL document CHEMBL1201861, “Genomics of Drug Sensitity in Cancer screening data, Wellcome Trust Sanger Institute”.

Assays:
[1] = test system: Becker; assay: cells; format: functional, cell-based; settings: Homo sapiens;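 further: growth inhibition of Becker cells, read out with a cell viability assay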
Description: SANGER: Inhibition of human Becker cell growth in a cell viability assay.

[2] = test system: CW-2; assay: cells; format: functional, cell-based; settings: Homo sapiens;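 further: growth inhibition of CW-2 cells, read out by a cell viability assay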
Description: SANGER: Inhibition of human CW-2 cell growth in a cell viability assay.

[3] = test system: RXF 393; assay: cells; format: functional, cell-based; settings: Homo sapiens;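 further: growth inhibition of human RXF 393 cells, read out with a cell viability assay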
Description: SANGER: Inhibition of human RXF393 cell growth in a cell viability assay.

[4] = test system: NCI-H1299; assay: cells; format: functional, cell-based; settings: Homo sapiens;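 further: growth inhibition of human NCI-H1299 cells, read out by a cell viability assay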
Description: SANGER: Inhibition of human NCI-H1299 cell growth in a cell viability assay.

[5] = test system: IGROV-1; assay: cells; format: functional, cell-based; settings: Homo sapiens;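 further: reduction of IGROV-1 cell growth, read out with a viability assay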
Description: SANGER: Inhibition of human IGROV-1 cell growth in a cell viability assay.

[6] = test system: BCPAP; assay: cells; format: functional, cell-based; settings: Homo sapiens;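 further: growth inhibition of BCPAP cells, read out in a cell viability assay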
Description: SANGER: Inhibition of human BCPAP cell growth in a cell viability assay.

[7] = test system: JAR; assay: cells; format: functional, cell-based; settings: Homo sapiens;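 further: growth inhibition of human JAR cells determined with a cell viability assay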
Description: SANGER: Inhibition of human JAR cell growth in a cell viability assay.

[8] = test system: U-266; assay: cells; format: functional, cell-based; settings: Homo sapiens
Description: SANGER: Inhibition of human U-266 cell growth in a cell viability assay.

[9] = test system: MFH-ino; assay: cells; format: functional, cell-based; settings: Homo sapiens;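 further: growth inhibition of human MFH-ino cells, read out by a cell viability assay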
Description: SANGER: Inhibition of human MFH-ino cell growth in a cell viability assay.

[10] = test system: COLO-829; assay: cells; format: functional, cell-based; settings: Homo sapiens
Description: SANGER: Inhibition of human COLO-829 cell growth in a cell viability assay.

[11] = test system: A4-Fuk; assay: cells; format: functional, cell-based; settings: Homo sapiens;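 further: growth inhibition of A4-Fuk cells, read out by a cell viability assay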
Description: SANGER: Inhibition of human A4-Fuk cell growth in a cell viability assay.

[12] = test system: NKM-1; assay: cells; format: functional, cell-based; settings: Homo sapiens;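 further: growth inhibition of NKM-1 cells, read out with a cell viability assay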
Description: SANGER: Inhibition of human NKM-1 cell growth in a cell viability assay.

[13] = test system: GT3TKB; assay: cells; format: functional, cell-based; settings: Homo sapiens;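 further: growth inhibition of the cell line, read out with a cell viability assay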
Description: SANGER: Inhibition of human GT3TKB cell growth in a cell viability assay.

[14] = test system: COLO-320-HSR; assay: cells; format: functional, cell-based; settings: Homo sapiens;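 further: growth inhibition of COLO-320-HSR cells, determined with a cell viability assay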
Description: SANGER: Inhibition of human COLO-320-HSR cell growth in a cell viability assay.

[15] = test system: NCI-H1395; assay: cells; format: functional, cell-based; settings: Homo sapiens;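 further: cell viability assay read-out quantifying reduced proliferation of human NCI-H1395 cells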
Description: SANGER: Inhibition of human NCI-H1395 cell growth in a cell viability assay.

[16] = test system: NCI-H720; assay: cells; format: functional, cell-based; settings: Homo sapiens;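 further: growth inhibition of human NCI-H720 cells determined by a cell viability assay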
Description: SANGER: Inhibition of human NCI-H720 cell growth in a cell viability assay.

[17] = test system: MEG-01; assay: cells; format: functional, cell-based; settings: Homo sapiens;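 further: growth inhibition of MEG-01 cells, read out by a cell viability assay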
Description: SANGER: Inhibition of human MEG-01 cell growth in a cell viability assay.

[18] = test system: IST-SL1; assay: cells; format: functional, cell-based; settings: Homo sapiens;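 further: growth inhibition of human IST-SL1 cells, read out with a cell viability assay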
Description: SANGER: Inhibition of human IST-SL1 cell growth in a cell viability assay.

[19] = test system: VA-ES-BJ; assay: cells; format: functional, cell-based; settings: Homo sapiens;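 further: growth inhibition of the VA-ES-BJ cell line, read out by a cell viability assay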
Description: SANGER: Inhibition of human VA-ES-BJ cell growth in a cell viability assay.

[20] = test system: BB49-HNC; assay: cells; format: functional, cell-based; settings: Homo sapiens;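 further: cell viability assay read-out, reported as inhibition of BB49-HNC cell growth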
Description: SANGER: Inhibition of human BB49-HNC cell growth in a cell viability assay.

[21] = test system: LU-134-A; assay: cells; format: functional, cell-based; settings: Homo sapiens
Description: SANGER: Inhibition of human LU-134-A cell growth in a cell viability assay.

[22] = test system: MZ2-MEL; assay: cells; format: functional, cell-based; settings: Homo sapiens;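 further: growth inhibition of MZ2-MEL cells read out with a cell viability assay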
Description: SANGER: Inhibition of human MZ2-MEL cell growth in a cell viability assay.

[23] = test system: DoTc2-4510; assay: cells; format: functional, cell-based; settings: Homo sapiens
[24] = test system: CP66-MEL; assay: cells; format: functional, cell-based; settings: Homo sapiens;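 further: growth inhibition of CP66-MEL cells determined in a cell viability assay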
Description: SANGER: Inhibition of human CP66-MEL cell growth in a cell viability assay.

[25] = test system: MKN-45; assay: cells; format: functional, cell-based; settings: Homo sapiens;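 further: growth inhibition of human MKN-45 cells, measured with a cell viability assay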
Description: SANGER: Inhibition of human MKN45 cell growth in a cell viability assay.

[26] = test system: DJM-1; assay: cells; format: functional, cell-based; settings: Homo sapiens;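 further: growth inhibition of human DJM-1 cells, read out by a cell viability assay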
Description: SANGER: Inhibition of human DJM-1 cell growth in a cell viability assay.

[27] = test system: BV-173; assay: cells; format: functional, cell-based; settings: Homo sapiens
Description: SANGER: Inhibition of human BV-173 cell growth in a cell viability assay.

[28] = test system: MIA PaCa-2; assay: cells; format: functional, cell-based; settings: Homo sapiens;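 further: growth inhibition of MIA PaCa-2 cells, read out with a cell viability assay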
Description: SANGER: Inhibition of human MIA-PaCa-2 cell growth in a cell viability assay.

[29] = test system: MV4-11; assay: cells; format: functional, cell-based, MV-4-11; settings: Homo sapiens;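 further: cell viability readout measuring growth inhibition of human MV-4-11 cells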
Description: SANGER: Inhibition of human MV-4-11 cell growth in a cell viability assay.

[30] = test system: L-363; assay: cells; format: functional, cell-based; settings: Homo sapiens
Description: SANGER: Inhibition of human L-363 cell growth in a cell viability assay.

[31] = test system: RPMI-2650; assay: cells; format: functional, cell-based; settings: Homo sapiens
Description: SANGER: Inhibition of human RPMI-2650 cell growth in a cell viability assay.

[32] = test system: ACN; assay: cells; format: functional, cell-based; settings: Homo sapiens;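 further: growth inhibition of the human ACN cell line, read out via cell viability testing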
Description: SANGER: Inhibition of human ACN cell growth in a cell viability assay.

[33] = test system: NCI-H2126; assay: cells; format: functional, cell-based; settings: Homo sapiens;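 further: growth inhibition of the cancer cell line, determined with a cell viability readout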
Description: SANGER: Inhibition of human NCI-H2126 cell growth in a cell viability assay.

[34] = test system: NCI-H1581; assay: cells; format: functional, cell-based; settings: Homo sapiens;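 further: cell growth inhibition read out by a viability assay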
Description: SANGER: Inhibition of human NCI-H1581 cell growth in a cell viability assay.

[35] = test system: NB13; assay: cells; format: functional, cell-based; settings: Homo sapiens;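 further: cell viability readout measuring growth inhibition of human NB13 cells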
Description: SANGER: Inhibition of human NB13 cell growth in a cell viability assay.

[36] = test system: KY821; assay: cells; format: functional, cell-based; settings: Homo sapiens;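 further: growth inhibition of human KY821 cells, read out by a cell viability assay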
Description: SANGER: Inhibition of human KY821 cell growth in a cell viability assay.

[37] = test system: HL-60; assay: cells; format: functional, cell-based; settings: Homo sapiens;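 further: growth inhibition of human HL-60 cells, read out with a cell viability assay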
Description: SANGER: Inhibition of human HL-60 cell growth in a cell viability assay.

[38] = test system: P30-OHK; assay: cells; format: functional, cell-based; settings: Homo sapiens;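 further: growth inhibition of the P30-OHK cell line, read out with a cell viability assay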
Description: SANGER: Inhibition of human P30-OHK cell growth in a cell viability assay.

[39] = test system: TGBC24TKB; assay: cells; format: functional, cell-based; settings: Homo sapiens;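 further: growth inhibition of human TGBC24TKB cells, read out with a cell viability assay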
Description: SANGER: Inhibition of human TGBC24TKB cell growth in a cell viability assay.

[40] = test system: LS-411N; assay: cells; format: functional, cell-based; settings: Homo sapiens
[41] = test system: BB65-RCC; assay: cells; format: functional, cell-based; settings: Homo sapiens;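 further: growth inhibition of the cell line, measured with a cell viability assay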
Description: SANGER: Inhibition of human BB65-RCC cell growth in a cell viability assay.

[42] = test system: SK-LMS-1; assay: cells; format: functional, cell-based; settings: Homo sapiens;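 further: growth inhibition of human SK-LMS-1 cells, read out with a cell viability assay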
Description: SANGER: Inhibition of human SK-LMS-1 cell growth in a cell viability assay.

[43] = test system: IM-9; assay: SANGER: Inhibition of human IM-9 cell growth in a cell viability assay.; format: functional, cell-based
[44] = test system: MOLT-16; assay: cells; format: functional, cell-based; settings: Homo sapiens;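 further: growth inhibition of human MOLT-16 cells, read out with a cell viability assay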
Description: SANGER: Inhibition of human MOLT-16 cell growth in a cell viability assay.

[45] = test system: A-431; assay: cells; format: functional, cell-based; settings: Homo sapiens;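 further: growth inhibition of A-431 cells, determined with a cell viability read-out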
Description: SANGER: Inhibition of human A431 cell growth in a cell viability assay.

[46] = test system: SW982; assay: cells; format: functional, cell-based; settings: Homo sapiens;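 further: growth inhibition of SW982 cells, read out with a cell viability assay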
Description: SANGER: Inhibition of human SW982 cell growth in a cell viability assay.

[47] = test system: DEL; assay: cells; format: functional, cell-based; settings: Homo sapiens;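 further: growth inhibition of the human DEL cell line, read out with a cell viability assay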
Description: SANGER: Inhibition of human DEL cell growth in a cell viability assay.

[48] = test system: ES4; assay: cells; format: functional, cell-based; settings: Homo sapiens;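 further: growth inhibition of human ES4 cells, read out by a cell viability assay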
Description: SANGER: Inhibition of human ES4 cell growth in a cell viability assay.

[49] = test system: LS-123; assay: cells; format: functional, cell-based; settings: Homo sapiens
Description: SANGER: Inhibition of human LS-123 cell growth in a cell viability assay.

[50] = test system: LU-165; assay: cells; format: functional, cell-based; settings: Homo sapiens
Description: SANGER: Inhibition of human LU-165 cell growth in a cell viability assay.

[51] = test system: ALL-PO; assay: cells; format: functional, cell-based; settings: Homo sapiens;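 further: growth inhibition of ALL-PO cells, read out by a cell viability assay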
Description: SANGER: Inhibition of human ALL-PO cell growth in a cell viability assay.

[52] = test system: NB69; assay: cells; format: functional, cell-based; settings: Homo sapiens;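 further: growth inhibition of NB69 cells, determined by a cell viability assay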
Description: SANGER: Inhibition of human NB69 cell growth in a cell viability assay.

[53] = test system: LB2241-RCC; assay: cells; format: functional, cell-based; settings: Homo sapiens;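 further: cell viability assay measuring how strongly the cultured human renal carcinoma line is prevented from growing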
Description: SANGER: Inhibition of human LB2241-RCC cell growth in a cell viability assay.

[54] = test system: MOLT-4; assay: cells; format: functional, cell-based; settings: Homo sapiens;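 further: growth inhibition of MOLT-4 cells, determined with a cell viability readout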
Description: SANGER: Inhibition of human MOLT-4 cell growth in a cell viability assay.

[55] = test system: GB-1; assay: cells; format: functional, cell-based; settings: Homo sapiens;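 further: growth of GB-1 cells judged by a viability assay, IC50 marks the concentration inhibiting growth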
Description: SANGER: Inhibition of human GB-1 cell growth in a cell viability assay.

[56] = test system: LB831-BLC; assay: cells; format: functional, cell-based; settings: Homo sapiens;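 further: growth inhibition of LB831-BLC cells, read out with a cell viability assay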
Description: SANGER: Inhibition of human LB831-BLC cell growth in a cell viability assay.

[57] = test system: A204; assay: cells; format: functional, cell-based; settings: Homo sapiens;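 further: growth inhibition of human A204 cells, read out with a cell viability assay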
Description: SANGER: Inhibition of human A204 cell growth in a cell viability assay.

[58] = test system: EM-2; assay: cells; format: functional, cell-based; settings: Homo sapiens;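 further: growth inhibition of EM-2 cells, read out with a cell viability assay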
Description: SANGER: Inhibition of human EM-2 cell growth in a cell viability assay.

[59] = test system: RS4-11; assay: cells; format: functional, cell-based; settings: Homo sapiens
Description: SANGER: Inhibition of human RS4-11 cell growth in a cell viability assay.

[60] = test system: EW-18; assay: cells; format: functional, cell-based; settings: Homo sapiens
Description: SANGER: Inhibition of human EW-18 cell growth in a cell viability assay.

[61] = test system: KM12; assay: cells; format: functional, cell-based; settings: Homo sapiens
Description: SANGER: Inhibition of human KM12 cell growth in a cell viability assay.

[62] = test system: NCI-H526; assay: cells; format: functional, cell-based; settings: Homo sapiens
Description: SANGER: Inhibition of human NCI-H526 cell growth in a cell viability assay.

[63] = test system: NCI-H1651; assay: cells; format: functional, cell-based; settings: Homo sapiens
Description: SANGER: Inhibition of human NCI-H1651 cell growth in a cell viability assay.

[64] = test system: GI-ME-N; assay: cells; format: functional, cell-based; settings: Homo sapiens
Description: SANGER: Inhibition of human GI-ME-N cell growth in a cell viability assay.

[65] = test system: HH; assay: cells; format: functional, cell-based; settings: Homo sapiens
Description: SANGER: Inhibition of human HH cell growth in a cell viability assay.

CCNC(=O)c1noc(-c2cc(C(C)C)c(O)cc2O)c1-c1ccc(CN2CCOCC2)cc1 [LUMINESPIB]
IC50 [1]: 0.0151 µM
IC50 [2]: > 0.256 µM
IC50 [3]: 0.0086 µM
IC50 [4]: 0.0115 µM
IC50 [5]: 0.00814 µM
IC50 [6]: 0.0265 µM
IC50 [7]: > 0.256 µM
IC50 [8]: 0.145 µM
IC50 [9]: 0.0129 µM
IC50 [10]: > 0.256 µM
IC50 [11]: 0.017 µM
IC50 [12]: 0.00547 µM
IC50 [13]: 0.012 µM
IC50 [14]: 0.185 µM
IC50 [15]: > 0.256 µM
IC50 [16]: > 0.256 µM
IC50 [17]: 0.173 µM
IC50 [18]: > 0.256 µM
IC50 [19]: 0.0429 µM
IC50 [20]: 0.0108 µM
IC50 [21]: 0.0571 µM
IC50 [22]: 0.0318 µM
IC50 [23]: 0.0212 µM
IC50 [24]: 0.0789 µM
IC50 [25]: 0.206 µM
IC50 [26]: 0.0427 µM
IC50 [27]: 0.0343 µM
IC50 [28]: 0.0151 µM
IC50 [29]: 0.000558 µM
IC50 [30]: 0.069 µM
IC50 [31]: 0.0143 µM
IC50 [32]: 0.0166 µM
IC50 [33]: > 0.256 µM
IC50 [34]: > 0.256 µM
IC50 [35]: 0.0423 µM
IC50 [36]: > 0.256 µM
IC50 [37]: 0.0181 µM
IC50 [38]: > 0.256 µM
IC50 [39]: > 0.256 µM
IC50 [40]: 0.0373 µM
IC50 [41]: 0.012 µM
IC50 [42]: 0.00458 µM
IC50 [43]: 0.235 µM
IC50 [44]: 0.0179 µM
IC50 [45]: 0.00607 µM
IC50 [46]: 0.0129 µM
IC50 [47]: 0.112 µM
IC50 [48]: 0.015 µM
IC50 [49]: 0.0244 µM
IC50 [50]: 0.154 µM
IC50 [51]: 0.0173 µM
IC50 [52]: 0.011 µM
IC50 [53]: 0.0364 µM
IC50 [54]: 0.048 µM
IC50 [55]: 0.0219 µM
IC50 [56]: 0.0322 µM
IC50 [57]: 0.0212 µM
IC50 [58]: > 0.256 µM
IC50 [59]: 0.0338 µM
IC50 [60]: 0.106 µM
IC50 [61]: 0.014 µM
IC50 [62]: 0.187 µM
IC50 [63]: 0.0243 µM
IC50 [64]: 0.0743 µM
IC50 [65]: 0.142 µM

CO[C@@]12[C@H](COC(N)=O)C3=C(C(=O)C(C)=C(N)C3=O)N1C[C@@H]1N[C@@H]12 [MITOMYCIN]
IC50 [1]: 0.862 µM
IC50 [2]: 7.73 µM
IC50 [3]: 4.39 µM
IC50 [4]: 0.218 µM
IC50 [5]: 0.106 µM
IC50 [6]: 0.24 µM
IC50 [7]: 4.56 µM
IC50 [8]: 0.866 µM
IC50 [9]: 0.0706 µM
IC50 [10]: 2.09 µM
IC50 [11]: 0.225 µM
IC50 [12]: < 0.0625 µM
IC50 [13]: 0.318 µM
IC50 [14]: 1.08 µM
IC50 [15]: 2.23 µM
IC50 [16]: 1.54 µM
IC50 [17]: 0.683 µM
IC50 [18]: 1.45 µM
IC50 [19]: 0.0522 µM
IC50 [20]: 0.353 µM
IC50 [21]: 0.0467 µM
IC50 [22]: 0.432 µM
IC50 [23]: 0.18 µM
IC50 [24]: 0.645 µM
IC50 [25]: 0.165 µM
IC50 [26]: 1.03 µM
IC50 [27]: < 0.0625 µM
IC50 [28]: 0.275 µM
IC50 [29]: < 0.0625 µM
IC50 [30]: 0.434 µM
IC50 [31]: 0.196 µM
IC50 [32]: 0.128 µM
IC50 [33]: 0.26 µM
IC50 [34]: 0.907 µM
IC50 [35]: 0.646 µM
IC50 [36]: 1.65 µM
IC50 [37]: 0.106 µM
IC50 [38]: < 0.0625 µM
IC50 [39]: 0.71 µM
IC50 [40]: 0.322 µM
IC50 [41]: 0.145 µM
IC50 [42]: 0.439 µM
IC50 [43]: 0.0562 µM
IC50 [44]: 0.585 µM
IC50 [45]: 0.0438 µM
IC50 [46]: 0.105 µM
IC50 [47]: 0.0484 µM
IC50 [48]: < 0.0625 µM
IC50 [49]: 1.72 µM
IC50 [50]: 0.513 µM
IC50 [51]: 0.031 µM
IC50 [52]: 0.175 µM
IC50 [53]: < 0.0625 µM
IC50 [54]: < 0.0625 µM
IC50 [55]: 0.452 µM
IC50 [56]: 0.816 µM
IC50 [57]: 0.0842 µM
IC50 [58]: 1.03 µM
IC50 [59]: 0.0349 µM
IC50 [60]: 3.94 µM
IC50 [61]: 1.08 µM
IC50 [62]: 0.0674 µM
IC50 [63]: < 0.0625 µM
IC50 [64]: 1.39 µM
IC50 [65]: 1.07 µM
